Test results from US10035760B2, “Inhibitors of human immunodeficiency virus replication” (priority 2013, dated 2018).
Read-outs that look alike come from different tables or passages of the source.

Tested on: recombinant NL4-3 virus (Renilla luciferase) in MT-2 cells
Assay: HIV cell culture assay (antiviral activity, luciferase readout in infected MT-2 cells)
Assay type: cell-based
Experimental: HIV cell culture assay—MT-2 cells, 293T cells and the proviral DNA clone of NL4-3 virus were obtained from the NIH AIDS Research and Reference Reagent Program. MT-2 cells were propagated in RPMI 1640 media supplemented with 10% heat inactivated fetal bovine serum (FBS), 100 ug/ml penicillin G and up to 100 units/ml streptomycin. The 293T cells were propagated in DMEM media supplemented with 10% heat inactivated FBS, 100 ug/ml penicillin G and 100 ug/ml streptomycin. A recombinant NL4-3 proviral clone, in which a section of the nef gene was replaced with the Renilla luciferase gene, was used to make the reference virus used in these studies. The recombinant virus was prepared through transfection of the recombinant NL4-3 proviral clone into 293T cells using Transit-293 Transfection Reagent from Mirus Bio LLC (Madison, Wis.). Supernatent was harvested after 2-3 days after transfection, and the amount of virus present was titered in MT-2 cells using luciferase enzyme activity as a marker. Luciferase activity was quantitated using the EnduRen Live Cell Substrate from Promega (Madison, Wis.). Antiviral activities of compounds toward the recombinant virus were quantified by measuring luciferase activity in MT-2 cells infected for 4-5 days with the recombinant virus in the presence of serial dilutions of the compound.
The 50% effective concentration (EC50) was calculated by using the exponential form of the median effect equation where (Fa)=1/[1+(ED50/drug conc.)^m](Johnson V A, Byington R T. Infectivity Assay. In Techniques in HIV Research. ed. Aldovini A, Walker B D. 71-76. New York: Stockton Press. 1990).

[1] = Renilla, NL43, recombinant NL4-3 Renilla luciferase virus in MT-2 cells
[2] = Renilla, NL43, read-out: Activity, antiviral activity class, recombinant NL4-3 Renilla luciferase virus in MT-2 cells

Cc1ccccc1S(=O)(=O)NC(=O)N[C@@H](Cc1ccccc1C(N)=O)C(=O)N(C)c1ccc2c(c1)OCO2 [Example 66, (S)-2-(3-(benzo[d][1,3]dioxol-5-yl(methyl)amino)-3-oxo-2-(3-(o-tolylsulfonyl)ureido)propyl)benzamide]
EC50 [1]: > 100000 nM

Cc1ccccc1S(=O)(=O)NC(=O)N[C@@H](Cc1ccccc1)C(=O)N(C)c1cccc(C(N)=O)c1 [Example CA-94, (S)-3-(N-methyl-3-phenyl-2-(3-(o-tolylsulfonyl)ureido)propanamido)benzamide]
EC50 [2]: 1000 to 10000 nM | EC50 [1]: 3260 nM

CCN(C(=O)[C@H](Cc1ccccc1)NC(=O)NS(=O)(=O)c1cccc(-c2ccoc2)c1)c1ccc(OC)cc1 [Example 121, (S)—N-ethyl-2-(3-((3-(furan-3-yl)phenyl)sulfonyl)ureido)-N-(4-methoxyphenyl)-3-phenylpropanamide]
EC50 [2]: < 100 nM

COc1cc(C)c(N(C)C(=O)[C@H](Cc2ccccc2)NC(=O)NS(=O)(=O)c2ccccc2C)cc1C [Example JB-84, (S)—N-(4-methoxy-2,5-dimethylphenyl)-N-methyl-3-phenyl-2-(3-(o-tolylsulfonyl)ureido)propanamide]
EC50 [2]: 100 to 1000 nM

CN(C(=O)[C@H](Cc1ccccc1)NC(=O)NS(=O)(=O)c1ccccc1-c1cnn(C)c1)c1ccc2c(c1)OCO2 [Example 49, (S)—N-(benzo[d][1,3]dioxol-5-yl)-N-methyl-2-(3-((2-(1-methyl-1H-pyrazol-4-yl)phenyl)sulfonyl)ureido)-3-phenylpropanamide]
EC50 [1]: 1340 nM | EC50 (read-out: Activity, antiviral activity class, recombinant NL4-3 Renilla luciferase virus in MT-2 cells): 1000 to 10000 nM

COc1ccccc1S(=O)(=O)NC(=O)N[C@@H](Cc1ccccc1)C(=O)N(C)c1ccc2c(c1)OCO2 [Example 108, (S)—N-(benzo[d][1,3]dioxol-5-yl)-2-(3-((2-methoxyphenyl)sulfonyl)ureido)-N-methyl-3-phenylpropanamide]
EC50 [2]: 100 to 1000 nM

Cc1ccccc1S(=O)(=O)NC(=O)N[C@@H](Cc1ccccc1)C(=O)N(C)c1ccc2ncncc2c1 [Example CA-96, (S)—N-methyl-3-phenyl-N-(quinazolin-6-yl)-2-(3-(o-tolylsulfonyl)ureido)propanamide]
EC50 [2]: 100 to 1000 nM

Cc1cccc(N(C)C(=O)[C@H](Cc2ccccc2)NC(=O)NS(=O)(=O)c2ccccc2C)c1 [Example 163, (S)—N-methyl-3-phenyl-N-(m-tolyl)-2-(3-(o-tolylsulfonyl)ureido)propanamide]
EC50 [2]: 100 to 1000 nM

Cc1ccccc1S(=O)(=O)NC(=O)N[C@@H](Cc1ccccc1)C(=O)N(C)c1ccc(O)c(NC=O)c1 [Example CA-90, (S)—N-(3-formamido-4-hydroxyphenyl)-N-methyl-3-phenyl-2-(3-(o-tolylsulfonyl)ureido)propanamide]
EC50 [2]: 1000 to 10000 nM

Cc1ccccc1S(=O)(=O)NC(=O)N[C@@H](Cc1ccc(-c2ccccc2)cc1)C(=O)N(C)c1ccc2c(c1)OCO2 [Example 69, (S)-3-([1,1′-biphenyl]-4-yl)-N-(benzo[d][1,3]dioxol-5-yl)-N-methyl-2-(3-(o-tolylsulfonyl)ureido)propanamide]
EC50 [2]: 10000 to 100000 nM

CCN(C(=O)[C@H](Cc1ccccc1)NC(=O)NS(=O)(=O)c1ccccc1C(=O)OC)c1ccc(OC)cc1 [Example 114, (S)-methyl 2-(N-((1-(ethyl(4-methoxyphenyl)amino)-1-oxo-3-phenylpropan-2-yl)carbamoyl)sulfamoyl)benzoate]
EC50 [2]: 1000 to 10000 nM | EC50 [1]: 1060 nM

Cc1nc2ccc(N(C)C(=O)[C@H](Cc3ccccc3)NC(=O)NS(=O)(=O)c3ccccc3C)cc2o1 [Example CA-86, (S)—N-methyl-N-(2-methylbenzo[d]oxazol-6-yl)-3-phenyl-2-(3-(o-tolylsulfonyl)ureido)propanamide]
EC50 [2]: < 100 nM

COC(=O)Nc1ccc(N(C)C(=O)[C@H](Cc2ccccc2)NC(=O)NS(=O)(=O)c2ccccc2C)cc1 [Example CA-93, (S)-methyl (4-(N-methyl-3-phenyl-2-(3-(o-tolylsulfonyl)ureido)propanamido)phenyl)carbamate]
EC50 [2]: < 100 nM

CCN(C(=O)[C@H](Cc1ccccc1)NC(=O)NS(=O)(=O)c1ccccc1C)c1ccc(C)c(C)c1 [Example 175, (S)—N-(3,4-dimethylphenyl)-N-ethyl-3-phenyl-2-(3-(o-tolylsulfonyl)ureido)propanamide]
EC50 [2]: < 100 nM

CCc1cccc(C[C@H](NC(=O)NS(=O)(=O)c2ccccc2CC)C(=O)N(C)c2ccc(OC)cc2)c1 [Example 215, (S)-3-(3-ethylphenyl)-2-(3-((2-ethylphenyl)sulfonyl)ureido)-N-(4-methoxyphenyl)-N-methylpropanamide]
EC50 [2]: 100 to 1000 nM

CN(C(=O)[C@H](Cc1ccccc1)NC(=O)NS(=O)(=O)c1ccccc1-c1ccc(F)nc1)c1ccc2c(c1)OCO2 [Example 148, (S)—N-(benzo[d][1,3]dioxol-5-yl)-2-(3-((2-(6-fluoropyridin-3-yl)phenyl)sulfonyl)ureido)-N-methyl-3-phenylpropanamide]
EC50 [2]: 1000 to 10000 nM

CCN(C(=O)[C@H](Cc1ccccc1)NC(=O)NS(=O)(=O)c1cccc(-c2ccsc2)c1C)c1ccc(OC)cc1 [Example 157, (S)—N-ethyl-N-(4-methoxyphenyl)-2-(3-((2-methyl-3-(thiophen-3-yl)phenyl)sulfonyl)ureido)-3-phenylpropanamide]
EC50 [2]: 100 to 1000 nM

Cc1ccccc1C[C@H](NC(=O)NS(=O)(=O)c1ccccc1C)C(=O)N(C)c1ccc2c(c1)OCO2 [Example 53, (S)—N-(benzo[d][1,3]dioxol-5-yl)-N-methyl-3-(o-tolyl)-2-(3-(o-tolylsulfonyl)ureido)propanamide]
EC50 [2]: 100 to 1000 nM

Cc1ccccc1S(=O)(=O)NC(=O)N[C@@H](Cc1ccc(Br)cc1)C(=O)N(C)c1ccc2c(c1)OCO2 [Example 57, (S)—N-(benzo[d][1,3]dioxol-5-yl)-3-(4-bromophenyl)-N-methyl-2-(3-(o-tolylsulfonyl)ureido)propanamide]
EC50 [2]: 1000 to 10000 nM

Cc1ccccc1S(=O)(=O)NC(=O)N[C@@H](Cc1cc(F)c(F)cc1F)C(=O)N(C)c1ccc2c(c1)OCO2 [Example 75, (S)—N-(benzo[d][1,3]dioxol-5-yl)-N-methyl-2-(3-(o-tolylsulfonyl)ureido)-3-(2,4,5-trifluorophenyl)propanamide]
EC50 [2]: 100 to 1000 nM | EC50 [1]: 290 nM

CN(C(=O)[C@H](Cc1cc(F)cc(F)c1)NC(=O)NS(=O)(=O)c1ccccc1F)c1ccc2c(c1)OC(F)(F)O2 [Example 35, (S)—N-(2,2-difluorobenzo[d][1,3]dioxol-5-yl)-3-(3,5-difluorophenyl)-2-(3-((2-fluorophenyl)sulfonyl)ureido)-N-methylpropanamide]
EC50 [2]: 100 to 1000 nM

CCN(C(=O)[C@H](Cc1ccccc1)NC(=O)NS(=O)(=O)c1cccc(-c2ccnn2C)c1C)c1ccc(OC)cc1 [Example 158, (S)—N-ethyl-N-(4-methoxyphenyl)-2-(3-((2-methyl-3-(1-methyl-1H-pyrazol-5-yl)phenyl)sulfonyl)ureido)-3-phenylpropanamide]
EC50 [2]: 100 to 1000 nM | EC50 [1]: 230 nM

CN(C(=O)[C@H](Cc1ccccc1)NC(=O)NS(=O)(=O)CCc1ccccc1)c1ccc2c(c1)OCO2 [Example 24, (S)—N-(benzo[d][1,3]dioxol-5-yl)-N-methyl-2-(3-(phenethylsulfonyl)ureido)-3-phenylpropanamide]
EC50 [2]: 100 to 1000 nM

COc1ccc(N(CCc2ccccc2)C(=O)[C@H](Cc2ccccc2)NC(=O)NS(=O)(=O)c2ccccc2C)cc1 [Example ZY-5, (S)—N-(4-methoxyphenyl)-N-phenethyl-3-phenyl-2-(3-(o-tolylsulfonyl)ureido)propanamide]
EC50 [2]: 10000 to 100000 nM | EC50 [1]: 11400 nM

Cc1ccccc1CS(=O)(=O)NC(=O)N[C@@H](Cc1ccccc1)C(=O)N(C)c1ccc2c(c1)OCO2 [Example 104, (S)—N-(benzo[d][1,3]dioxol-5-yl)-N-methyl-2-(3-((2-methylbenzyl)sulfonyl)ureido)-3-phenylpropanamide]
EC50 [2]: 100 to 1000 nM | EC50 [1]: 620 nM

COc1cc(N(C)C(=O)[C@H](Cc2ccccc2)NC(=O)NS(=O)(=O)c2ccccc2C)cc(OC)c1OC [Example JB-82, (S)—N-methyl-3-phenyl-2-(3-(o-tolylsulfonyl)ureido)-N-(3,4,5-trimethoxyphenyl)propanamide]
EC50 [2]: 1000 to 10000 nM

Cc1ccc(F)cc1S(=O)(=O)NC(=O)N[C@@H](Cc1ccccc1)C(=O)N(C)c1ccc2c(c1)OCO2 [Example 16, (S)—N-(benzo[d][1,3]dioxol-5-yl)-2-(3-((5-fluoro-2-methylphenyl)sulfonyl)ureido)-N-methyl-3-phenylpropanamide]
EC50 [2]: < 100 nM

Cc1nc(-c2ccc(CN(C)C(=O)[C@H](Cc3ccccc3)NC(=O)NS(=O)(=O)c3ccccc3)cc2)no1 [Example 97, (S)—N-methyl-N-(4-(5-methyl-1,2,4-oxadiazol-3-yl)benzyl)-3-phenyl-2-(3-(phenylsulfonyl)ureido)propanamide]
EC50 [2]: 1000 to 10000 nM

CCN(C(=O)[C@H](Cc1ccccc1)NC(=O)NS(=O)(=O)c1cccc(-c2cc3c(OC)cccc3[nH]2)c1C)c1ccc(OC)cc1 [Example 162, (S)—N-ethyl-2-(3-((3-(4-methoxy-1H-indol-2-yl)-2-methylphenyl)sulfonyl)ureido)-N-(4-methoxyphenyl)-3-phenylpropanamide]
EC50 [2]: 1000 to 10000 nM
